Test results taken from patent US4841076A, “Benzopyran derivatives” (Daiichi Seiyaku Co., Ltd., priority 1986, dated 1989).

Key:
hypertensive rats = assay: Antihypertensive Activity (DOCA/saline hypertensive rats, tail cuff); assay type: in vivo; details: DOCA hypertensive rats, orally once a day, systolic pressure vs control
Experimental: Four-week-old male rats weighing 120 to 150 g were subcutaneously injected with DOCA (desoxycorticosterone acetate) and fed on a 1% saline solution to cause hypertension in accordance with the method of Seyle, et al. as described in American Heart Journal, Vol. 37, 1009 (1949). The test compound was orally administered to the hypertensive rats once a day for 4 weeks. The blood pressure of the animal was measured by a tail cuff method every one week from the start of the administration.
In Table 3, antihypertensive activity (ΔmmHg) was obtained by subtracting the systolic pressure of the test group from that of the control group.

male rats [1] = assay: Diuretic Activity and Natriuretic Activity; assay type: in vivo; details: 300 mg/Kg, orally, urine collected for 5 hours, control value subtracted
Experimental: Male rats weighing 150 to 250 g were fasted overnight and, the next morning, orally administered with either (1) 25 ml/Kg of physiological saline (control group) or (2) a test compound which was suspended in 0.5 wt % carboxymethylcellulose. Urine after dosing was collected for 5 hours, and urinary volume and sodium concentration were measured. Each parameter was calculated by subtracting the value of the control group from that of the test group.

male rats [2] = assay: Uricosuric Activity (fractional excretion of uric acid); assay type: in vivo; details: orally, 30 min urine from 60 min after dosing
Experimental: Male rats weighing 150 to 250 g were fasted overnight and, the next morning, orally administered with either (1) 25 ml/Kg of physiological saline (control group) or (2) a test compound which was suspended in 0.5 wt % carboxymethylcellulose. After 60 minutes from the administration of the test compound, urine over a period of 30 minutes was collected. Thereafter, blood was taken from the arotid artery under anesthesia, and uric acid concentrations in the urine and the serum were determined by the enzyme method. On the other hand, […] concentrations in the urine and the serum were determined by a Jaffe's method to obtain the fractional excretion of uric acid. Percent of uric acid excretion was calculated by dividing the value of fractional excretion in the test group by that in the control group.

Acute toxicity (LD50) = details: rat, in vivo, po; P.O. in Rats
From the text: The compound of the present invention has a low toxicity, and the acute toxicity (LD50) of typical compounds of formula (I) is shown in the following Table 4.

[3] = in words, literature; cited from earlier work

| SMILES | Antihypertensive Activity After 1 Week (hypertensive rats; 100 mg/Kg) | Antihypertensive Activity After 2 Weeks (hypertensive rats; 100 mg/Kg) | Antihypertensive Activity After 3 Weeks (hypertensive rats; 100 mg/Kg) | Increase in Urinary Na^+ (male rats [1]) | Increase in Urinary Output (male rats [1]) | % of Uric Acid Excretion (male rats [2]; 100 mg/Kg) | LD50 (Acute toxicity (LD50)) | diuretic, saluretic and uricosuric activities [3] | Antihypertensive Activity After 1 Week (hypertensive rats; 300 mg/Kg) | Antihypertensive Activity After 2 Weeks (hypertensive rats; 300 mg/Kg) | Antihypertensive Activity After 3 Weeks (hypertensive rats; 300 mg/Kg) | % of Uric Acid Excretion (male rats [2]; 200 mg/Kg) |
| --- | --- | --- | --- | --- | --- | --- | --- | --- | --- | --- | --- | --- |
| Cc1ccccc1-c1coc2cc(OCC(=O)O)cc(Cl)c2c1=O [(d), {[5-Chloro-3-(2-methylphenyl)-4-oxo-4H-1-benzopyran-7-yl]oxy}acetic acid] | 12.1 ΔmmHg | 14.3 ΔmmHg | 15.7 ΔmmHg | 1196 ΔμEq | 49.6 Δml/Kg | 56% | – | – | – | – | – | – |
| O=C(O)COc1cc(Cl)c2c(=O)c(-c3ccccc3)coc2c1 [(a), [(5-Chloro-4-oxo-3-phenyl-4H-1-benzopyran-7-yl)oxy]acetic acid] | 13.7 ΔmmHg | 37.0 ΔmmHg | 49.0 ΔmmHg | 1220 ΔμEq | 51.8 Δml/Kg | 136% | 1020 mg/kg | – | – | – | – | – |
| O=C(O)COc1ccc(C(=O)c2cccs2)c(Cl)c1Cl [Tienilic acid, [2,3-dichloro-4-(2-thenoyl)phenoxy]acetic acid, reference compound] | – | – | – | 353.4 ΔμEq | 10.2 Δml/Kg | – | – | having diuretic and uricosuric activities | 23.6 ΔmmHg | 35.0 ΔmmHg | 44.3 ΔmmHg | 38% |
| CC1(c2ccccc2)Cc2cc(OCC(=O)O)c(Cl)c(Cl)c2C1=O (centres unmarked) [indacrinone] | – | – | – | – | – | – | – | having diuretic and uricosuric activities | – | – | – | – |
| Cc1cc(OCC(=O)O)cc2occ(-c3ccccc3)c(=O)c12 [(b), [(5-Methyl-4-oxo-3-phenyl-4H-1-benzopyran-7-yl)oxy]acetic acid] | 10.0 ΔmmHg | 17.9 ΔmmHg | 15.0 ΔmmHg | 987 ΔμEq | 23.6 Δml/Kg | 66% | 936 mg/kg | – | – | – | – | – |
| O=C(O)COc1cc(Cl)c2c(=O)c(-c3ccccc3Cl)coc2c1 [(c), {[5-Chloro-3-(2-chlorophenyl)-4-oxo-4H-1-benzopyran-7-yl]oxy}acetic acid] | 13.6 ΔmmHg | 20.7 ΔmmHg | 29.3 ΔmmHg | 1015 ΔμEq | 41.0 Δml/Kg | 36% | 1410 mg/kg | – | – | – | – | – |
| O=C(O)COc1cc(Cl)c2c(=O)c(Cc3ccccc3)coc2c1 [(e), [(3-Benzyl-5-chloro-4-oxo-4H-1-benzopyran-7-yl)oxy]acetic acid] | 6.2 ΔmmHg | 28.7 ΔmmHg | 39.4 ΔmmHg | 967 ΔμEq | 37.9 Δml/Kg | 39% | – | – | – | – | – | – |
